Reference: PubChem BioAssay AID330 (DTP/NCI, 2004)
Values joined by “and” are separate entries in the source; they are usually repeats but may differ in a detail not shown here. Equal values may be shown once. Toxic doses and inconclusive results are not listed.

Test system: P388 leukemia ip, CD2F1 mice, survival T/C
Experiment: NCI In Vivo Anticancer Drug Screen. Data for tumor model P388 Leukemia (intraperitoneal) in CD2F1 (CDF1) mice
Settings: endpoint: median survival time, higher = longer survival
In short: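 Mice carrying the transplanted tumor received test compound or vehicle. Survival was recorded in each group, and the value is the treated-group measurement divided by that of the vehicle-treated control group.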

[1] = dose: 12.5 mg/kg/injection, schedule: Q01DX009 (ip), vehicle: saline with Tween-80
[2] = dose: 25.0 mg/kg/injection, schedule: Q01DX009 (ip), vehicle: saline with Tween-80
[3] = dose: 50.0 mg/kg/injection, schedule: Q01DX009 (ip), vehicle: saline with Tween-80
[4] = dose: 50.0 mg/kg/injection, schedule: Q01DX005 (ip), vehicle: saline with Tween-80
[5] = dose: 100.0 mg/kg/injection, schedule: Q01DX005 (ip), vehicle: saline with Tween-80
[6] = dose: 200.0 mg/kg/injection, schedule: Q01DX005 (ip), vehicle: saline with Tween-80
[7] = dose: 60.0 mg/kg/injection, schedule: Q01DX005 (ip), vehicle: saline with Tween-80
[8] = dose: 120.0 mg/kg/injection, schedule: Q01DX005 (ip), vehicle: saline with Tween-80
[9] = dose: 12.5 mg/kg/injection, schedule: Q01DX009 (ip), vehicle: saline
[10] = dose: 25.0 mg/kg/injection, schedule: Q01DX009 (ip), vehicle: saline
[11] = dose: 50.0 mg/kg/injection, schedule: Q01DX009 (ip), vehicle: saline

`COCCOCCOCCOCCn1cc(F)c(=O)[nH]c1=O` was tested, and the T/C (dose: 50.0 mg/kg/injection, schedule: Q04DX002 (ip), vehicle: saline) was 104 % of control, the T/C (dose: 100.0 mg/kg/injection, schedule: Q04DX002 (ip), vehicle: saline) was 94 % of control and the T/C (dose: 200.0 mg/kg/injection, schedule: Q04DX002 (ip), vehicle: saline) was 100 % of control. For the same molecule, the T/C (dose: 400.0 mg/kg/injection, schedule: Q04DX002 (ip), vehicle: saline) was 94 % of control.
In the case of `Cc1ccc(C[N+](C)(C)C)cc1`, the T/C [1] is reported as 107 % of control, the T/C [2] is reported as 100 % of control and the T/C [3] is reported as 100 % of control and 106 % of control.
`CC(C)CC(C(=O)O)N(C)C(=O)OC(C)(C)C` (stereo unspecified) was tested, and the T/C (dose: 50.0 mg/kg/injection, schedule: Q01DX005 (ip), vehicle: Klucel (hydroxypropylcellulose) (HPC)) was 101 % of control, the T/C (dose: 100.0 mg/kg/injection, schedule: Q01DX005 (ip), vehicle: Klucel (hydroxypropylcellulose) (HPC)) was 93 % of control and the T/C (dose: 200.0 mg/kg/injection, schedule: Q01DX005 (ip), vehicle: Klucel (hydroxypropylcellulose) (HPC)) was 99 % of control.
In the case of `CC(O)CO` (stereo unspecified), the T/C (dose: 1.56 % in 0.5 ml injection vol, schedule: Q01DX009 (ip), vehicle: water) is reported as 112 % of control, the T/C (dose: 3.12 % in 0.5 ml injection vol, schedule: Q01DX009 (ip), vehicle: water) is reported as 119 % of control and the T/C (dose: 6.25 % in 0.5 ml injection vol, schedule: Q01DX009 (ip), vehicle: water) is reported as 110 % of control and 119 % of control. The T/C (dose: 12.5 % in 0.5 ml injection vol, schedule: Q01DX009 (ip), vehicle: water) was 111 % of control and 113 % of control, the T/C (dose: 25.0 % in 0.5 ml injection vol, schedule: Q01DX009 (ip), vehicle: water) was 104 % of control and 110 % of control and the T/C (dose: 50.0 % in 0.5 ml injection vol, schedule: Q01DX009 (ip), vehicle: water) was 88 % of control.
`CN(CC(=O)NN)c1ccccc1` was tested, and the T/C [4] was 93 % of control, the T/C [5] was 95 % of control and the T/C [6] was 95 % of control.
For `O=C1NC2C=CN(Cc3ccccc3)C=C2C(=O)N2CCCC12` (stereo unspecified), the T/C [7] was 101 % of control, the T/C [8] was 101 % of control and the T/C (dose: 240.0 mg/kg/injection, schedule: Q01DX005 (ip), vehicle: saline with Tween-80) was 97 % of control.
For `O=c1c2c(nc3n1CCSCC3)NCCC2`, the T/C (dose: 100.0 mg/kg/injection, schedule: Q04DX002 (ip), vehicle: Klucel (hydroxypropylcellulose) (HPC)) was 104 % of control, the T/C (dose: 200.0 mg/kg/injection, schedule: Q04DX002 (ip), vehicle: Klucel (hydroxypropylcellulose) (HPC)) was 98 % of control and the T/C (dose: 400.0 mg/kg/injection, schedule: Q04DX002 (ip), vehicle: Klucel (hydroxypropylcellulose) (HPC)) was 100 % of control.
In the case of `CCCCCCCCN1CCOCCOCCN(CCCCCCCC)c2nc(Cl)nc(n2)NCCOCCOCCNc2nc(Cl)nc1n2`, the T/C [7] is reported as 98 % of control and the T/C [8] is reported as 93 % of control.
`CN(C)c1ccc(/C=C/c2ccnc3c(O)cccc23)cc1` was tested, and the T/C (dose: 50.0 mg/kg/injection, schedule: Q01DX009 (ip), vehicle: Klucel (hydroxypropylcellulose) (HPC)) was 113 % of control, the T/C (dose: 100.0 mg/kg/injection, schedule: Q01DX009 (ip), vehicle: Klucel (hydroxypropylcellulose) (HPC)) was 104 % of control and the T/C (dose: 200.0 mg/kg/injection, schedule: Q01DX009 (ip), vehicle: Klucel (hydroxypropylcellulose) (HPC)) was 95 % of control.
For `CC1(C)CC(NCCCN(CCO)CCO)CC(C)(C)N1O`, the T/C (dose: 30.0 mg/kg/injection, schedule: Q01DX005 (ip), vehicle: saline) was 96 % of control, the T/C (dose: 60.0 mg/kg/injection, schedule: Q01DX005 (ip), vehicle: saline) was 99 % of control and the T/C (dose: 120.0 mg/kg/injection, schedule: Q01DX005 (ip), vehicle: saline) was 96 % of control.
For `Cc1nc2[nH]c(=S)[nH]c(=O)c2[nH]c1=O`, the T/C [9] was 97 % of control, the T/C [10] was 114 % of control and the T/C [11] was 120 % of control. The T/C (dose: 100.0 mg/kg/injection, schedule: Q01DX009 (ip), vehicle: saline) was 120 % of control.
With `[Cl][Sn]([c]1ccccc1)[c]1ccccc1` the T/C (dose: 1.8 mg/kg/injection, schedule: Q03HX015 (ip), vehicle: saline) was 150 % of control, the T/C (dose: 2.7 mg/kg/injection, schedule: Q03HX015 (ip), vehicle: saline) was 152 % of control and the T/C (dose: 3.12 mg/kg/injection, schedule: Q01DX009 (ip), vehicle: saline) was 86 % of control. The T/C (dose: 4.0 mg/kg/injection, schedule: Q03HX015 (ip), vehicle: saline) was 163 % of control, the T/C (dose: 5.3 mg/kg/injection, schedule: Q01DX005 (ip), vehicle: saline) was 154 % of control and the T/C (dose: 12.0 mg/kg/injection, schedule: Q01DX005 (ip), vehicle: saline) was 163 % of control. For the same molecule, the T/C [9] was 163 % of control, the T/C (dose: 12.5 mg/kg/injection, schedule: Q04DX003 (ip), vehicle: saline) was 114 % of control and the T/C [10] was 198 % of control. For the same molecule, the T/C (dose: 100.0 mg/kg/injection, schedule: Q04DX003 (ip), vehicle: saline) was 154 % of control.
In the case of `O=c1c2ccccc2nc2n1CCC/C2=C\c1ccc2c(c1)OCO2`, the T/C (dose: 91.75 mg/kg/injection, schedule: Q04DX002 (ip), vehicle: Klucel (hydroxypropylcellulose) (HPC)) is reported as 100 % of control, the T/C (dose: 183.5 mg/kg/injection, schedule: Q04DX002 (ip), vehicle: Klucel (hydroxypropylcellulose) (HPC)) is reported as 103 % of control and the T/C (dose: 367.0 mg/kg/injection, schedule: Q04DX002 (ip), vehicle: Klucel (hydroxypropylcellulose) (HPC)) is reported as 102 % of control.
With `CCCC(=O)Nc1cc([N+](=O)[O-])c([N+](=O)[O-])cc1OC` the T/C (dose: 60.0 mg/kg/injection, schedule: Q01DX005 (ip), vehicle: Klucel (hydroxypropylcellulose) (HPC)) was 94 % of control, the T/C (dose: 120.0 mg/kg/injection, schedule: Q01DX005 (ip), vehicle: Klucel (hydroxypropylcellulose) (HPC)) was 91 % of control and the T/C (dose: 240.0 mg/kg/injection, schedule: Q01DX005 (ip), vehicle: Klucel (hydroxypropylcellulose) (HPC)) was 94 % of control.
In the case of `Cc1cccc2c(=O)c(CCl)c(-c3ccccc3)sc12`, the T/C [4] is reported as 103 % of control, the T/C [5] is reported as 116 % of control and the T/C [6] is reported as 119 % of control.
With `O=S1(=O)C2C=CCCC1C=C2` (stereo unspecified) the T/C [9] was 92 % of control, the T/C [10] was 96 % of control and the T/C [11] was 100 % of control. For the same molecule, the T/C (dose: 200.0 mg/kg/injection, schedule: Q01DX009 (ip), vehicle: saline) was 100 % of control.
In the case of `Cc1c[nH]c(=O)[nH]c1=O`, the T/C (dose: 32.0 mg/kg/injection, schedule: Q01DX009 (ip), vehicle: Klucel (hydroxypropylcellulose) (HPC)) is reported as 99 % of control and 107 % of control, the T/C (dose: 32.0 mg/kg/injection, schedule: Q01DX009 (ip), vehicle: saline with Tween-80) is reported as 116 % of control and the T/C (dose: 64.0 mg/kg/injection, schedule: Q01DX009 (ip), vehicle: Klucel (hydroxypropylcellulose) (HPC)) is reported as 99 % of control and 102 % of control. The T/C (dose: 64.0 mg/kg/injection, schedule: Q01DX009 (ip), vehicle: saline with Tween-80) was 106 % of control, the T/C (dose: 128.0 mg/kg/injection, schedule: Q01DX009 (ip), vehicle: Klucel (hydroxypropylcellulose) (HPC)) was 100 % of control and 107 % of control and the T/C (dose: 128.0 mg/kg/injection, schedule: Q01DX009 (ip), vehicle: saline with Tween-80) was 111 % of control. For the same molecule, the T/C (dose: 170.0 mg/kg/injection, schedule: Q04DX003 (ip), vehicle: saline with Tween-80) was 100 % of control, the T/C (dose: 170.0 mg/kg/injection, schedule: Q## X003 (ip), vehicle: saline with Tween-80) was 100 % of control and the T/C (dose: 256.0 mg/kg/injection, schedule: Q01DX009 (ip), vehicle: Klucel (hydroxypropylcellulose) (HPC)) was 100 % of control and 112 % of control. For the same molecule, the T/C (dose: 260.0 mg/kg/injection, schedule: Q04DX003 (ip), vehicle: saline with Tween-80) was 94 % of control, the T/C (dose: 260.0 mg/kg/injection, schedule: Q## X003 (ip), vehicle: saline with Tween-80) was 94 % of control and the T/C (dose: 390.0 mg/kg/injection, schedule: Q04DX003 (ip), vehicle: saline with Tween-80) was 95 % of control and 98 % of control. For the same molecule, the T/C (dose: 390.0 mg/kg/injection, schedule: Q## X003 (ip), vehicle: saline with Tween-80) was 95 % of control and 98 % of control, the T/C (dose: 512.0 mg/kg/injection, schedule: Q01DX009 (ip), vehicle: Klucel (hydroxypropylcellulose) (HPC)) was 106 % of control and 93 % of control and the T/C (dose: 512.0 mg/kg/injection, schedule: Q01DX009 (ip), vehicle: saline with Tween-80) was 98 % of control. For the same molecule, the T/C (dose: 520.0 mg/kg/injection, schedule: Q04DX003 (ip), vehicle: saline with Tween-80) was 95 % of control and 98 % of control and the T/C (dose: 520.0 mg/kg/injection, schedule: Q## X003 (ip), vehicle: saline with Tween-80) was 95 % of control and 98 % of control.
For `NC(=S)Nc1cccc2ccccc12`, the T/C (dose: 6.25 mg/kg/injection, schedule: Q01DX009 (ip), vehicle: saline with Tween-80) was 100 % of control and 112 % of control, the T/C [1] was 113 % of control and 94 % of control and the T/C [2] was 104 % of control and 91 % of control. For the same molecule, the T/C [3] was 94 % of control.
